Earlier results, collected in patent US20170209579A1, “NON-INVASIVE RADIOFREQUENCY FIELD TREATMENT FOR CANCER THERAPY” (Baylor College of Medicine, priority 2014, published 2017).

Test system: tumor
Conditions: Monsky et al.; cited from earlier work

## COc1cccc2c1C(=O)c1c(O)c3c(c(O)c1C2=O)C[C@@](O)(C(=O)CO)C[C@@H]3O[C@H]1C[C@H](N)[C@H](O)[C@H](C)O1 [free doxorubicin]
  accumulation and retention in the tumor after conventional RFA: not
